Experimental data as given in patent publication US20070082858A1, “Methods and compositions for the prevention of toxic side effects of aminoglycoside medications” (priority 2004, published 2007).

Legend:
MDCK cells = experiment: GTTR uptake into MDCK cells under TRPV1 agonists/antagonists, cation channel blockers, cations and pH (30-60 seconds, 20° C., FATX fixation, confocal imaging); details: 75 μg/ml PIP2 added to 1 μg/ml GTTR in PBS, 1 minute
Text: MDCK cells were used as a model system to test regulation of GTTR uptake by conditions known to produce or modify a cation current through the TRPV1 channel. Conditions tested were varying extracellular calcium concentrations, pH, specific agonists, specific antagonists, and the non-specific cation channel blocker Ruthenium Red. In addition, we pre-mixed PIP2 with GTTR to determine whether that anionic phospholipid, known to bind gentamicin, would alter GTTR uptake. All these assays were done at room temperature (20° C.), for 30 or 60 seconds, and using doses of GTTR of 5 to 10 μg/ml, which are far below the typical therapeutic level of <300 μg/ml. Buffers used for treatment were as described for each experiment. Cells were quickly washed to replace culture medium with treatment buffer, treated as indicated, washed again after treatment, fixed immediately with 4% formaldehyde and 0.5% Triton X-100 (FATX), and washed prior to imaging.
Methods: Cells were seeded into 8-well coverglass chambers at 3000 cells/well and grown for 5 days.
Cells were washed three times with the buffer to be used in the particular experiment, treated with GTTR and experimental variable for 30 or 60 seconds at 20° C., precluding endocytosis. Following treatment, cells were rinsed three times with buffer, then fixed and delipidated with 4% formaldehyde plus 0.5% Triton X-100 (FATX) for 45 minutes. Following fixation, cells were rinsed with PBS (Invitrogen, CA) for at least 4-6 times, or until foaming in the suction pipette ceased. In contrast to previous experiments, no FBS was present in the treatment media, allowing for more rapid uptake of the antibiotic-based GTTR.
MDCK cells were washed with Hank's buffered salt solution (HBSS; Invitrogen, CA), then placed into buffers of varying potassium concentrations. HBSS was mixed with equi-osmolar KCl/HBSS to produce the required K^+ concentrations. Cells were treated with 1 μg/mL GTTR for 1 minute, then washed and fixed as described above.
Cells were washed with PBS (Invitrogen, CA), then placed into buffers containing varying concentrations of calcium, obtained by mixing HBSS with equimolar CaCl2, each at pH 7.3. Cells were treated with 5 μg/mL of GTTR for 30 seconds, then washed and fixed as above.
Cells were washed with saline, then treated with 5 μg/mL of GTTR in saline buffers of varying pH for 30 seconds, then washed and fixed as above. Sodium hydroxide and hydrochloric acid were used to alter pH. These experiments were performed in three different saline buffers: (i) PBS (no calcium), (ii) a mixture of […] for a final calcium concentration of 0.32 mM, and (iii) a mixture of three parts PBS to one part HBSS for a final calcium concentration of 0.97 mM.
Cells were washed three times with Ca^++-free saline (0.9% NaCl), then treated with 5 μg/mL GTTR and one of the following for 30 seconds: TRPV1 agonists (resiniferatoxin [RTX]; or anandamide [AND]; Alexis Biochemicals, San Diego, Calif.); or antagonists (iodo-RTX, or SB 366791; Tocris, Ellisville, Mo.). Cells were then washed in saline and fixed as above.
Cells were washed three times with Ca^++-free 0.9% NaCl, then treated with 5 μg/mL GTTR and one of the following for 30 seconds: 100 μM Ruthenium Red, 100 μM Ruthenium Red plus one of the TRPV1 agonists or antagonists described above; or lanthanum (La^+++) at 0.5 or 5 mM.

[1] = PIP2 quenching of GTTR and TR fluorescence (fixed cells and 3-d scanning fluorescence spectroscopy); details: 1 mg/ml PIP2 for 1.5 hour, imaged in PIP2 solution; recovered after delipidation
Method: PIP2: Monolayer MDCK cells were grown in coverglass chambers as described above. After fixation, delipidation, washing and imaging (FIG. 27B), cells were treated with 1 mg/mL phosphatidylinositol-4,5-bisphosphate (PIP2, Echelon Biosciences, Salt Lake City, Utah) for 1.5 hours and re-imaged (FIG. 27E), prior to a second delipidation with 0.5% Triton, washing and imaging again (FIG. 27F).
Spectrophotometry: 3-d scanning fluorescence spectroscopy of solutions containing TR or GTTR with or without (PIP2) were performed using a Safire fluorescence microplate reader (Tecan, Research Triangle Park, N.C.). GTTR (100 μg/mL; weight as gentamicin in molecule) and PIP2 (155 μg/mL; approximately equimolar) were mixed vigorously in PBS solution and allowed to stand at room temperature for ½ hour prior to scanning. This was compared to the same concentration of GTTR alone in solution. Similar hydrolyzed Texas Red solutions (at the same concentration as the Texas Red moiety in GTTR solutions), with or without PIP2, were used as controls. Excitation and emission spectra were obtained over an excitation range of 570-604 nm (bandwidth 5 nm) and an emission range of 610-650 nm (bandwidth 5 nm).

cochlear hair cells = experiment: In vivo GTTR uptake in mouse cochlea after sub-cutaneous injection; design: species or system mice
Method: (§1) Gentamicin sulfate was conjugated to Texas Red (Molecular Probes) using published methods (1) to produce a 300:1 molar dilution of gentamicin-Texas Red conjugate (GTTR). Mice were injected sub-cutaneously with a single 300 mg/kg dose of GTTR. Frogs were injected directly into the lymph sac (there is no sub-cutaneous space in frogs, lymph sacs drain directly into the blood). Control animals received an equivalent dose of hydrolyzed Texas Red succinimidyl esters only.
At specific time-points (0.5, 1, 2, 3, 6, 7.5, 9 and 24 hours) following injection, animals were anesthetized and inner ear organs were excised and fixed in 4% formaldehyde overnight. After washing in PBS, frog and murine organs were permeabilized using ice-cold acetone, and all organs were labeled with Alexa-488-conjugated, or FITC-conjugated phalloidin to localize filamentous actin. […]
For data analysis of murine samples, area intensity measurements of optically-sectioned hair cells (approximately 1-2 microns below the cuticular plate) were obtained from apical and basal cochlear regions (25 hair cells per row in each region). The mean basal intensity was divided by the mean apical intensity of an equivalent number of hair cells to derive a ratio that indicates the relative degree of fluorescence in basal hair cells compared to apical hair cells. […]

[2] = test system: bullfrog saccular hair cells; experiment: In vivo GTTR uptake in bullfrog saccule after lymph sac injection
Method: as §1
At specific time-points (0.5, 1, 2, 3, 6, 7.5, 9 and 24 hours) following injection, animals were anesthetized and inner ear organs were excised and fixed in 4% formaldehyde overnight. After washing in PBS, frog and murine organs were permeabilized using ice-cold acetone, and all organs were labeled with Alexa-488-conjugated, or FITC-conjugated phalloidin to localize filamentous actin. Mouse and frog inner ear epithelia were whole-mounted and observed using a Bio-Rad MRC 1024 ES laser scanning confocal system attached to a Nikon Eclipse TE300 inverted microscope. Alexa-488 and Texas Red images were collected sequentially using 1024×1024 pixel box size using a 4× (n.a. 0.25) and a 60× lens (n.a. 1.4) with an xy resolution=230 nm and xz resolution=440 nm. All control organs were imaged at the same laser intensity and gain settings as treated organs.

For “phosphatidylinositol-4,5-bisphosphate [PIP2]”, the GTTR uptake (MDCK cells) was “large reduction in GTTR uptake” and the “GTTR fluorescence in FATX-fixed MDCK cells” value [1] was “clearly quenched the GTTR fluorescence”.

For `O=S(=O)([O-])c1cc(S(=O)(=O)O)ccc1C1=c2cc3c4c(c2Oc2c1cc1c5c2CCCN5CCC1)CCC[N+]=4CCC3` [hydrolyzed TR, Texas Red], the “fluorescence in inner ear epithelia” value (cochlear hair cells) was “negligible fluorescence in their inner ear epithelia at all time points” and the “fluorescence in inner ear epithelia” value [2] was “negligible fluorescence in their inner ear epithelia at all time points”.
